The record followed here is ChEMBL document CHEMBL5512643, “Structure-based discovery of potent myosin inhibitors to guide antiparasite drug development” (Eur J Med Chem, 2024).

Series [1] deals with Gyrodactylus kobayashii. Put plainly: Antiparasitic activity against Gyrodactylus kobayashii infected in gold fish measured upto 48 hrs by stereomicroscope analysis. In kind it is functional, organism-based.
The nature of series [2]: Acute toxicity in gold fish infected with Gyrodactylus kobayashii measure upto 48 hrs by microscopic analysis. Conditions: carassius auratus.
A short description of series [3]: Therapeutic index, ratio of LC50 for acute toxicity in gold fish infected with Gyrodactylus kobayashii to EC50 for antiparasitic activity against Gyrodactylus kobayashii infected in gold fish. Conditions: goldfish.
The subject of series [4] is Gyrodactylus kobayashii. Put plainly: Binding affinity to Gyrodactylus kobayashii Myosin expressed in Escherichia coli BL21 assessed as thermal stabilization at 1 mM at 40 to 50 degreeC by CETSA analysis.
Series [5] can be described thus: Inhibition of wild type Gyrodactylus kobayashii Myosin ATPase activity incubated for 30 mins.
A short description of series [6]: Inhibition of Gyrodactylus kobayashii Myosin N439A mutant ATPase activity incubated for 30 min.
For another series, the system named is SARS-CoV-2. Put plainly: Antiviral activity against SARS-CoV-2 infected in African green monkey Vero cells assessed as inhibition of viral replication pretreated with compound for 2 hr followed by viral infection and measured after 48 hrs by indirect immunofluorescence assay. It is filed as functional, organism-based. Conditions: Severe acute respiratory syndrome coronavirus 2, Vero.

[7] abbreviates: Gyrodactylus kobayashii, 48 h, read-out: EC50.

Values after ≈ are worked out from the molar mass of the structure shown. Active and inactive are the calls of the source. The calls are words filed in the database; no cut-off is given here.

Turning to `CCCCC[C@H](O)/C=C/[C@H]1[C@H](O)CC(=O)[C@@H]1CCCCCCC(=O)O` [ALPROSTADIL], in the series with Gyrodactylus kobayashii [1] (setting [7]), the EC50 stood at 16.2 µg/mL (≈ 45.8 µM). The same compound returned an LC50 at 48 h in series [2] of 30.5 µg/mL (≈ 86 µM).
As to `O=C1C=C(O)C(=O)c2ccccc21` [LAWSONE], the 50% effective concentration (EC50) with Gyrodactylus kobayashii [1] (setting [7]) is 3.53 µg/mL (≈ 20.3 µM). Further, in series [2], the LC50 at 48 h is 10.7 µg/mL (≈ 61.4 µM). Moreover, in series [3], the selectivity ratio is 3.03.
Turning to `O=C1C=CC(=O)c2ccccc21` [NAPHTHOQUINONE], the EC50 in the series with Gyrodactylus kobayashii [1] (setting [7]) is 0.047 µg/mL (≈ 0.297 µM). The compound further registered an LC50 at 48 h in series [2] of 0.23 µg/mL (≈ 1.45 µM). In addition, the selectivity ratio in series [3] is 4.89.
Turning to `CO[C@H]1C[C@H](O[C@H]2CC[C@]3(C)[C@H]4CC[C@]5(C)[C@@H](C6=CC(=O)OC6)CC[C@]5(O)[C@@H]4CC[C@]3(O)C2)O[C@H](C)[C@H]1O[C@@H]1O[C@H](CO)[C@@H](O)[C@H](O)[C@H]1O`, the EC50 with Gyrodactylus kobayashii [1] (setting [7]) came out at 3.89 µg/mL (≈ 5.59 µM). The compound also came in with an LC50 at 48 h in series [2] of 4.12 µg/mL (≈ 5.92 µM).
The corresponding values for `C[C@@H]1O[C@@H](Oc2cc(O)c3c(=O)c(O)c(-c4ccc(O)cc4)oc3c2O)[C@H](O)[C@H](O[C@@H]2O[C@H](CO)[C@@H](O)[C@H](O)[C@H]2O)[C@H]1O` are 11.3 µg/mL (≈ 18.5 µM) and 13.2 µg/mL (≈ 21.7 µM).
The like results for `O=C1c2ccccc2C(=O)c2c1cc(O[C@@H]1O[C@H](CO[C@@H]3OC[C@@H](O)[C@H](O)[C@H]3O)[C@@H](O)[C@H](O)[C@H]1O)c(CO)c2O` [LUCIDIN PRIMEVOROSIDE] were, in that order, 4.15 µg/mL (≈ 7.35 µM) and 8.24 µg/mL (≈ 14.6 µM).
Turning to `O=c1cc(-c2ccccc2)oc2c([C@@H]3OC[C@H](O)[C@H](O)[C@H]3O)c(O)c([C@@H]3O[C@H](CO)[C@@H](O)[C@H](O)[C@H]3O)c(O)c12`, the 50% effective concentration (EC50) in the series with Gyrodactylus kobayashii [1] (setting [7]) is 7.58 µg/mL (≈ 13.8 µM).
In the case of `C[C@@H]1O[C@@H](O[C@H]2C(=O)c3c(O)cc(O)cc3O[C@H]2c2ccc(O)c(O)c2)[C@H](O)[C@H](O)[C@H]1O`, the EC50 in the series on Gyrodactylus kobayashii [1] (setting [7]) came to 15.9 µg/mL (≈ 35.3 µM). Moreover, in series [2], the LC50 at 48 h was determined as 26.5 µg/mL (≈ 58.7 µM). For the same compound, the 50% lethal concentration (LC50) in series [2] (48 h) turned out to be 24.975 µg/mL (≈ 55.5 µM).
On to `Cc1c([C@H](C)[C@@H]2NC[C@@H](C)C[C@H]2O)ccc2c1C[C@H]1[C@H]2CC=C2C[C@@H](O[C@@H]3O[C@H](CO)[C@@H](O)[C@H](O)[C@H]3O)CC[C@@]21C`, for which the EC50 with Gyrodactylus kobayashii [1] (setting [7]) was found to be 4.58 µg/mL (≈ 8.02 µM). This compound also showed an LC50 at 48 h in series [2] of 15.2 µg/mL (≈ 26.7 µM).
For the compound `CC1=CC(=O)c2ccccc2C1=O` [MENADIONE], the concentration giving a half-maximal response (EC50) with Gyrodactylus kobayashii [1] (setting [7]) came to 0.341 µg/mL (≈ 1.98 µM). Further, the LC50 at 48 h in series [2] was 1.19 µg/mL (≈ 6.93 µM). In addition, in series [3], the selectivity ratio amounted to 3.5.
As for `NC(=O)[C@@H]1CCCN1C(=O)[C@H](Cc1cnc[nH]1)NC(=O)[C@@H]1CCC(=O)N1` [PROTIRELIN], the concentration giving a half-maximal response (EC50) in the series on Gyrodactylus kobayashii [1] (setting [7]) was determined as 9.52 µg/mL (≈ 26.3 µM). For the same compound, the LC50 at 48 h in series [2] was 16.3 µg/mL (≈ 44.9 µM).
On to `COc1cc(C2Oc3ccc(C4Oc5cc(O)cc(O)c5C(=O)C4O)cc3OC2CO)ccc1O` (configuration not stated), for which, in the series with Gyrodactylus kobayashii [1] (setting [7]), the EC50 came to 7.53 µg/mL (≈ 15.6 µM). Moreover, the median lethal concentration (LC50) at 48 h in series [2] was 26.2 µg/mL (≈ 54.4 µM).
The like results for `COC(=O)[C@H]1O[C@@H](Oc2cc3oc(-c4ccc(O)cc4)cc(=O)c3c(O)c2O)[C@H](O)[C@@H](O)[C@@H]1O` were, in that order, 7.23 µg/mL (≈ 15.2 µM) and 11.4 µg/mL (≈ 23.9 µM).
On to `O=C1C=CC(=O)c2c(O)cccc21` [JUGLONE], for which the concentration giving a half-maximal response (EC50) with Gyrodactylus kobayashii [1] (setting [7]) stood at 0.72 µg/mL (≈ 4.13 µM).
`COc1ccc(CCC(=O)c2c(O)cc(O[C@@H]3O[C@H](CO)[C@@H](O)[C@H](O)[C@H]3O[C@@H]3O[C@@H](C)[C@H](O)[C@@H](O)[C@H]3O)cc2O)cc1O` [NEOHESPERIDIN DIHYDROCHALCONE]: in the series with Gyrodactylus kobayashii [1] (setting [7]), the EC50 came out at 13.4 µg/mL (≈ 21.9 µM). The compound also returned an LC50 at 48 h in series [2] of 25.5 µg/mL (≈ 41.6 µM).
As for `COc1cc(C[C@H]2C(=O)OC[C@@H]2Cc2ccc(OC)c(OC)c2)ccc1O` [ARCTIGENIN], the outcome with Gyrodactylus kobayashii [4] was Active. Also, the half-inhibitory concentration (IC50) in series [5] was found to be 677 µM; in series [6], 3210 µM. Moreover, in the series with Gyrodactylus kobayashii [1] (setting [7]), the EC50 is 1.85 µg/mL (≈ 4.97 µM). The LC50 at 48 h in series [2] is 11.6 µg/mL (≈ 31.2 µM).
In turn, `O=C(/C=C/c1ccccc1)c1ccccc1` [CHALCONE] displayed an IC50 in series [5] of 440 µM. Also, the half-maximal effective concentration (EC50) in the series on Gyrodactylus kobayashii [1] (setting [7]) is 1.08 µg/mL (≈ 5.21 µM). This compound also yielded an LC50 at 48 h in series [2] of 7.66 µg/mL (≈ 36.8 µM).
With `C[C@@H]1O[C@@H](Oc2cc(O)c3c(=O)c(O)c(-c4ccc(O)cc4)oc3c2)[C@H](O)[C@H](O)[C@H]1O` [ALPHA-RHAMNOISOROBIN], the 50% effective concentration (EC50) in the series on Gyrodactylus kobayashii [1] (setting [7]) is 8.27 µg/mL (≈ 19.1 µM). Further, in series [2], the 50% lethal concentration (LC50) at 48 h worked out at 9.3 µg/mL (≈ 21.5 µM).
As for `C#CCC(Cc1cnc2nc(N)nc(N)c2n1)c1ccc(C(=O)N[C@@H](CCC(=O)O)C(=O)O)cc1` (some centres not stated) [PRALATREXATE], the concentration giving a half-maximal response (EC50) in the series on SARS-CoV-2 amounted to 0.008 µM.
As to `O=C(O)[C@H]1O[C@@H](Oc2cc3oc(-c4ccc(O)cc4)cc(=O)c3c(O)c2O)[C@H](O)[C@@H](O)[C@@H]1O` [SCUTELLARIN], the concentration giving a half-maximal response (EC50) in the series on Gyrodactylus kobayashii [1] (setting [7]) stood at 7.15 µg/mL (≈ 15.5 µM). Besides, the 50% lethal concentration (LC50) at 48 h in series [2] was found to be 13.3 µg/mL (≈ 28.7 µM).
`CC(C)=CC[C@@H](O)C1=CC(=O)c2c(O)ccc(O)c2C1=O` [SHIKONIN]: in series [5], the half-inhibitory concentration (IC50) is 140 µM. The EC50 is 0.37 µg/mL (≈ 1.28 µM) in the series on Gyrodactylus kobayashii [1] and 0.371 µg/mL (≈ 1.29 µM) with Gyrodactylus kobayashii [1] (setting [7]). The LC50 at 48 h in series [2] is 1.29 µg/mL (≈ 4.47 µM). Further, the selectivity ratio in series [3] was found to be 3.49.
For the compound `O=C1OC[C@H]2O[C@@H](Oc3cc(O)c(C(=O)CCc4ccccc4)c(O)c3)[C@H](O)[C@@H](O)[C@@H]2OC(=O)c2cc(O)c(O)c(O)c2-c2c1cc(O)c(O)c2O` [THONNINGIANIN B], the concentration giving a half-maximal response (EC50) in the series with Gyrodactylus kobayashii [1] (setting [7]) was found to be 6.31 µg/mL (≈ 8.73 µM). The same compound registered an LC50 at 48 h in series [2] of 21.5 µg/mL (≈ 29.8 µM).

Broadly, the EC50 is the concentration at which the effect is half-maximal. In general, LC50 refers to the concentration that kills 50% of the test population. A word on the IC50: it is the concentration needed to halve the response being measured.
